Measurements from patent US8518959B2, “Quinoxaline derivatives as antitumor agents” (Prolexys Pharmaceuticals, Inc., priority 2005, dated 2013).

Legend:
[1] = test system: BJ-TERT/LT/ST/RAS^V12 cells; assay: Nuclear morphology assay; assay type: cell-based, human; details: fluorescence microscopy, 18 hours
Excerpt: Applicants sought to characterize the type of cell death induced by CPT and erastin in tumorigenic BJ-TERT/LT/ST/RAS^V12 cells. […] To determine whether erastin or CPT induces apoptosis in their system, Applicants monitored the nuclear morphology of CPT- and erastin-treated tumorigenic cells using fluorescence microscopy. […] Since nuclear morphological change is required of apoptotic cells, Applicants conclude that cell death induced by erastin is non-apoptotic. […] Additionally, nuclei remained intact in erastin-treated tumor cells (FIG. 9).
200,000 tumorigenic BJ-TERT/LT/ST/RAS^V12 cells were seeded in 2 mL on glass coverslips in each well of a six-well dish, treated with nothing (NT), 9 μM erastin or 1.1 μM camptothecin (CPT) in growth medium for 18 hours while incubating at 37° C. with 5% CO2. Nuclei were stained with 25 μg/mL Hoechst 33342 (Molecular Probes) and viewed using an oil immersion 100× objective on a fluorescence microscope.

PANC-1 xenografts = assay: PANC-1 tumor treatment study; assay type: in vivo, mouse; details: nude mice, once a day for five consecutive days
Experimental: The experimental plan for the PANC-1 study was essentially identical to that of the HT-1080 study outlined above in Example 10 with the following exceptions: approximately 3040 mg fragment of passaged PANC-1 tumor tissue was implanted subcutaneously in the right flank of an immunodeficient nude mouse. Tumor growth was monitored daily and when the tumors reached approximately 100 mm^3, animals harboring similarly sized tumors were group matched and compound dosing was initiated. Administration of compound 5 occurred once a day for five consecutive days at the doses listed below. In the PANC-1 xenografts, gemcitabine, administered at the maximum tolerated dose for the model, was used as a control. The gemcitabine regimen was 180 mg/kg […] on every third day over a period of 9 days.

HT-1080 xenografts = assay: HT-1080 tumor treatment study; assay type: in vivo, mouse; details: nude mice, 50 or 100 mg/Kg QD×5 days IP
Experimental: • Nude Balb/c (Nu/Nu strain, Charles River Laboratories), female, 5-6 week old (˜20 g average body weight). Formulation of Test Articles:
Both compounds were formulated in an identical manner. For the 100 mg/kg dose level, each compound was delivered at a concentration of 10.0 mg/ml, in an injection volume of 0.2 ml. For the 50 mg/kg dose level, each compound was delivered at a concentration of 5.0 mg/ml, in an injection volume of 0.2 ml. For both dose levels, the vehicle contained 0.025% Tween-80, 0.01% benzyl alcohol, 35 mM acetic acid (HOAc), 100 mM potassium phosphate buffer, and 32 mM sucrose, pH 6.5.
• A: PRLX compound 6@100 mg/Kg, QD×5 days, IP, n=8 • B: PRLX compound 6@50 mg/Kg, QD×5 days, IP, n=8 • C: PRLX compound 5@100 mg/Kg, QD×5 days, IP, n=8 • D: PRLX compound 5@50 mg/Kg, QD×5 days, IP, n=8 • E: Vehicle Control, QD×5 days, IP, n=8 • F: Untreated Control, n=8 Treatment Schedule: […]
Starting on Day 1, all animals were weighed, and tumor dimensions (length (L) and width (W)) were measured, every other day. […]
The resulting tumor volume values were averaged for each study group for each time point, and were then plotted against time. Variance was expressed as standard error of the mean (±SEM).

[2] = test system: BJ-TERT/LT/ST/RAS^V12 tumorigenic cells; assay: Calcein AM viability assay, dilution series; assay type: cell-based, human; details: ST- and RAS^V12-dependent
Excerpt: (§1) Described here is work carried out to identify compounds with increased potency or activity in the presence of hTERT, LT, ST, E6, E7 or RAS^V12. Although the work described herein made use of hTERT, LT, ST, E6, E7 and RAS^V12 as transforming genes, future studies can make use of a wide variety of cancer-associated alleles using this methodology in order to define the signaling networks that involve many oncogenes and tumor suppressors. Engineered cell lines with these genetic elements were used to screen 23,550 compounds, including 20,000 compounds from a combinatorial library, 1,990 compounds from the National Cancer Institute diversity collection, and 1,540 biologically active known compounds that were selected and purchased by Applicant and formatted into a screenable collection. […] Cell viability was measured using the dye calcein acetoxymethyl ester (calcein AM) (Wang et al., 1993, Hum. Immunol. 37, 264-270), which is a non-fluorescent compound that freely diffuses into cells. […]
(§2) Calcein acetoxylmethyl ester (AM) is a cell membrane-permeable, non-fluorescent compound that is cleaved by intracellular esterases to form the anionic, cell-impermeable, fluorescent compound calcein. […] Total fluorescence intensity in each well was recorded on a Packard Fusion platereader, and converted to a percent inhibition of signal by subtracting the instrument background and dividing by the average signal obtained when cells were not treated with any compound. […]
(§3) Mean RFU (relative fluorescence units) for untreated cells was calculated by averaging columns 1, 2, and 23 (wells with cells but lacking compounds). The calcein background was calculated by averaging column 24 (wells with calcein, but lacking cells). Percentage inhibition of each well was calculated as [1−(RFU−calcein control)/(untreated cell−calcein control)*100]. […]

BJ primary cells = assay: Calcein AM viability assay, dilution series; assay type: cell-based, human
Excerpt: as §1, §2, §3

SMILES	Antitumor effect in PANC-1 xenografts (PANC-1 xenografts)	Antitumor effect in HT-1080 xenografts (HT-1080 xenografts)	other results
CC[C@@]1(O)C(=O)OCc2c1cc1n(c2=O)Cc2cc3ccccc3nc2-1 [Camptothecin]	–	–	Type of cell death / nuclear morphology [1]: karyorhexis and margination of chromatin were clearly visible
CCOc1ccccc1-n1c(CN2CCNCC2)nc2ccccc2c1=O [Compound 5, 3-(2-ethoxyphenyl)-2-(piperazin-1-ylmethyl)quinazolin-4(3H)-one]	induction of tumor regression	induction of robust tumor regression	–
CCOc1ccccc1-n1c(C(C)N2CCNCC2)nc2ccccc2c1=O (centres unmarked) [Compound 6]	induction of tumor growth inhibition	induction of tumor growth inhibition	–
CCOc1ccccc1-n1c(C(C)N2CCN(C(=O)COc3ccc(Cl)cc3)CC2)nc2ccccc2c1=O (centres unmarked) [Erastin]	–	–	Time to irreversible cell death [2]: 12 to 24 h
C=C1[C@@H](O)[C@@H]2O[C@]3(CC[C@H](/C=C/[C@@H](C)[C@@H]4CC(C)=C[C@@]5(O[C@H](C[C@@](C)(O)C(=O)O)CC[C@H]5O)O4)O3)CC[C@H]2O[C@@H]1[C@@H](O)C[C@H](C)[C@H]1O[C@@]2(CCCCO2)CC[C@H]1C [okadaic acid]	–	–	Sensitization of BJ primary cells to camptothecin (BJ primary cells; okadaic acid 3.4 nM with camptothecin): renders BJ cells sensitive to camptothecin; Effect on calcein AM viability staining of BJ cells (BJ primary cells; okadaic acid alone at 3.4 nM): no effect on its own
